Several values for one entry are separate records, joined by “and”; a condition that tells them apart may be missing. Equal entries are not always repeated.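 Following 48 hours of exposure in 96-well plates, responses at five concentrations were used to interpolate endpoints linearly. Abbreviation: GI50, concentration required for 50% inhibition of growth. At the TGI there is no net growth.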
Key:
Assay in all cases: NCI tumour cell line growth inhibition, 48 h
MDA-MB-435 = test system: MDA-MB-435
MOLT-4 leukemia = test system: MOLT-4 leukemia
LOX IMVI melanoma = test system: LOX IMVI melanoma
BT-549 breast = test system: BT-549 breast
A549 NSCLC = test system: A549 NSCLC
PC-3 prostate = test system: PC-3 prostate
HL-60(TB) leukemia = test system: HL-60(TB) leukemia
NCI-H23 lung = test system: NCI-H23 lung
OVCAR-5 ovarian = test system: OVCAR-5 ovarian
MCF7 breast = test system: MCF7 breast

| Compound | GI50 (MDA-MB-435) | TGI (MDA-MB-435) | GI50 (MOLT-4 leukemia) | TGI (MOLT-4 leukemia) [µM] | GI50 (LOX IMVI melanoma) | TGI (LOX IMVI melanoma) [µM] | GI50 (BT-549 breast) [µM] | TGI (BT-549 breast) [µM] | GI50 (A549 NSCLC) [µM] | TGI (A549 NSCLC) [µM] | GI50 (PC-3 prostate) | TGI (PC-3 prostate) [µM] | GI50 (HL-60(TB) leukemia) | TGI (HL-60(TB) leukemia) | GI50 (NCI-H23 lung) | TGI (NCI-H23 lung) [µM] | GI50 (OVCAR-5 ovarian) [µM] | TGI (OVCAR-5 ovarian) [µM] | GI50 (MCF7 breast) | TGI (MCF7 breast) [µM] |
| --- | --- | --- | --- | --- | --- | --- | --- | --- | --- | --- | --- | --- | --- | --- | --- | --- | --- | --- | --- | --- |
| CCCCOc1ccc(/C=N/Nc2cc(C)nc3ccc(Br)cc23)cc1 | 1.8 µM | 3.27 µM | 1.91 µM | 4.11 | 1.77 µM | 3.24 | 1.77 | 3.42 | 1.88 | 3.52 | 1.75 µM | 3.37 | 2.02 µM | 4.07 µM | 1.86 µM | 3.76 | 1.86 | 3.25 | 1.83 µM | 3.68 |
| Cc1c2ccncc2c(C)c2c1sc1ccccc12 | – | 39.3 µM | – | 7.28 | – | 21.5 | – | 35.9 | – | 18.3 | – | 26.4 | – | 17.3 µM | – | 25.2 | – | 46.7 | – | 18.1 |
| C#CC1(O)C(COP(=O)(O)OCC2OC(n3cc(F)c(=O)[nH]c3=O)CC2O)OC(n2ccc(N)nc2=O)C1O (stereo not given) | < 0.01 µM | 0.181 µM | < 0.01 µM | 0.0124 | < 0.01 µM | – | < 0.019 | 2.52 | < 0.01 | > 100 | < 0.0305 µM | > 69 | < 0.011 µM | – | < 0.0139 µM | 0.449 | 0.309 | > 59.1 | < 0.01 µM | > 100 |
| CCC(C)C1=C(O)[N+]2([O-])Oc3ccc(C4=C(O)C(=O)C(c5ccc(O)cc5)=C(O)C4=O)cc3OC2(C(C)CC)C(=O)N1O (stereo not given) | 9.77 µM | 90.6 µM | 11 µM | 41.8 | 7.28 µM | 33.9 | 8.74 | > 100 | 9.35 | > 100 | 6.14 µM | > 100 | 14.2 µM | 86.7 µM | 13.3 µM | > 100 | > 100 | > 100 | 4.25 µM | > 100 |
| O=C(c1ccc([N+](=O)[O-])cc1)C(Br)C(Br)c1ccnc2ccccc12 (stereo not given) | – | 7.85 µM | – | 14.7 | – | 4.71 | – | 20 | – | 30.5 | – | 21.1 | – | 9.99 µM | – | > 21.9 | – | 33 | – | 8.86 |
| C#C[C@@]1(O)[C@@H](CO)O[C@@H](n2cc(C(F)(F)F)c3c(N)ncnc32)[C@@H]1O | 0.808 µM | 11.3 µM | 0.29 µM | 1.33 | 0.288 µM | 2.98 | 0.962 | 4.69 | 0.871 | > 19.7 | 0.427 µM | > 21.1 | 0.278 µM | 0.984 µM | 0.651 µM | 8.19 | 1.59 | 7.06 | 0.0711 µM | – |
| CC(=O)/C(Br)=C/c1ccc(Br)o1 | 8.51 µM | 23.2 µM | 3.03 µM | 15.3 | 4.35 µM | 14.9 | 5.94 | 18.6 | 26.8 | 86.4 | 8.94 µM | 27.1 | 2.53 µM | 8.58 µM | 12.1 µM | 41.7 | 13.7 | 34.4 | 3.67 µM | 14.4 |
| C=C1C(=O)O[C@H]2[C@H]1CC/C(COC(=O)/C=C\C(=O)NCc1ccc(Cn3c(=O)sn(CCI)c3=O)cc1)=C\CC[C@@]1(C)O[C@@H]21 | 3.04 µM | 8.68 µM | 2.24 µM | 6.32 | 2.18 µM | 4.88 | 10.7 | 22.6 | 14.8 | 30.5 | 7.37 µM | 21.5 | 1.59 µM | 5.41 µM | 3.34 µM | 11.8 | 3.56 | 13.3 | 3.37 µM | 25.9 |
| CC[C@H](C)[C@H](NC(=O)[C@H]1CCCCN1C)C(=O)N(C)[C@H](C[C@@H](OC(C)=O)c1cccc(C(=O)N[C@@H](Cc2ccccc2)C[C@H](C)C(=O)O)n1)C(C)C | 0.000279 µM and < 0.0025 µM | 0.00152 µM and < 0.0025 µM | 0.00364 µM and 0.0025 µM | > 25 | 0.00168 µM and 0.0025 µM | > 25 | 0.0025 | 0.0116 | – | > 25 | 0.00273 µM and 0.0025 µM | > 25 | 0.00111 µM and < 0.0025 µM | 0.00592 µM and < 0.0025 µM | 0.00356 µM and 0.0025 µM | > 25 | – | > 25 | 0.000341 µM and 0.0025 µM | > 25 |
| COc1ccc(S(=O)(=O)Nc2c(/C=C\c3cc(OC)c(OC)c(OC)c3)ccc(OC)c2O)cc1 | 0.019 µM | 0.0484 µM | 0.0423 µM | > 100 | 0.0455 µM | 49.1 | 0.0501 | 47 | 0.0459 | > 100 | 0.0408 µM | > 100 | 0.0235 µM | 0.0779 µM | 0.052 µM | > 100 | 1.02 | > 100 | 0.038 µM | > 100 |
| c1ccc(Oc2ccc(Nc3ncc(-c4ccccc4)o3)cc2)cc1 | > 25 µM | > 25 µM | > 25 µM | > 25 | > 25 µM | > 25 | > 25 | > 25 | > 25 | > 25 | > 25 µM | > 25 | > 25 µM | > 25 µM | > 25 µM | > 25 | > 25 | > 25 | > 25 µM | > 25 |
| CCCCCCCCCCNCCSS(=O)(=O)O | 1.14 µM | 2.91 µM | 2.06 µM | 4.92 | 1.69 µM | 3.26 | 6.15 | 21.8 | 2.1 | 5.27 | 1.98 µM | 4.07 | 1.76 µM | 3.74 µM | 1.9 µM | 4.49 | 2.27 | 4.24 | 1.81 µM | 3.38 |
| COc1cc([N+](=O)[O-])c(S(=O)(=O)O)cc1-n1nc(C(=O)Nc2ccccc2)n[n+]1-c1cc(S(=O)(=O)[O-])c([N+](=O)[O-])cc1OC | – | > 100 µM | – | > 100 | – | > 100 | – | > 100 | – | > 100 | – | > 100 | – | > 100 µM | – | > 100 | – | > 100 | – | > 100 |

— PubChem BioAssay (NCI)
